Laboratory results reported in article PMC5144158 (Chemical research in toxicology, 2016).
“Also recorded” adds a separate entry of the source. Read-outs that look alike come from different tables or passages of the source.

Assays:
[1] = system: Wild-type mice; conditions: PPARα knockout mice not protected, ref [59]; cited from earlier work
[2] = target: T1, hCAR1 (Homo sapiens, UniProt Q14994); assay: Transactivation luciferase reporter assay in COS-1 cells, CMV2-CAR1; assay type: cell-based; conditions: COS-1, 2B6-XREM-PBREM reporter, ANDRO 10 μM, 24 h, Figure 2
T1 sequence (Q14994 1-348 isoform Q14994-2): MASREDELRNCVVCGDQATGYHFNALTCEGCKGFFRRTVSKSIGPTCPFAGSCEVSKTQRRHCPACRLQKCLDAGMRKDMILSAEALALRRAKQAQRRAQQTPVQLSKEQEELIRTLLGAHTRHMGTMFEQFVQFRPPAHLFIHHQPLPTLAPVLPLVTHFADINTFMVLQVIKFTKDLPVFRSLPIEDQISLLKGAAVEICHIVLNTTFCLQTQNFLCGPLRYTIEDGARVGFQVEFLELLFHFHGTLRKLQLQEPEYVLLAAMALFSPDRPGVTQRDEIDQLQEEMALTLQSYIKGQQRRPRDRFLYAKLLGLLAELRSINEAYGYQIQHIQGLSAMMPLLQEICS

[3] = system: rodent PPAR and CAR target genes; conditions: in vivo rodent studies, ref [29],[30]; cited from earlier work
[4] = target: T2, hPXR (Homo sapiens, UniProt O75469); assay: Transactivation luciferase reporter assay in COS-1 cells, CMV2-PXR; conditions: for activation of hPXR (screen): COS-1, 2B6-XREM-PBREM reporter, Figure 2
T2 sequence (O75469 1-434): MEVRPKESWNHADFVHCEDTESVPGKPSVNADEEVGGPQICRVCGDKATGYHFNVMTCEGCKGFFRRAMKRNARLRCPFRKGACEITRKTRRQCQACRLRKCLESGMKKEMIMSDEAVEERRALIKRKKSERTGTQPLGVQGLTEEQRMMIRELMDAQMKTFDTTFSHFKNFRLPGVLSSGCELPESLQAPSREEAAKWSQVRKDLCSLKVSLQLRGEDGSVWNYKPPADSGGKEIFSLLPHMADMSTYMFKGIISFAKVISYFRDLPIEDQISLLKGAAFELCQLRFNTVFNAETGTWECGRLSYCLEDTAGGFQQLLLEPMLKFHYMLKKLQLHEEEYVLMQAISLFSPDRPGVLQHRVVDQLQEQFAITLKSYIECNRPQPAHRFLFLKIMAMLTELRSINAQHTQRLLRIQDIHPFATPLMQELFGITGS
T2 sequence (P19793 1-462 partner): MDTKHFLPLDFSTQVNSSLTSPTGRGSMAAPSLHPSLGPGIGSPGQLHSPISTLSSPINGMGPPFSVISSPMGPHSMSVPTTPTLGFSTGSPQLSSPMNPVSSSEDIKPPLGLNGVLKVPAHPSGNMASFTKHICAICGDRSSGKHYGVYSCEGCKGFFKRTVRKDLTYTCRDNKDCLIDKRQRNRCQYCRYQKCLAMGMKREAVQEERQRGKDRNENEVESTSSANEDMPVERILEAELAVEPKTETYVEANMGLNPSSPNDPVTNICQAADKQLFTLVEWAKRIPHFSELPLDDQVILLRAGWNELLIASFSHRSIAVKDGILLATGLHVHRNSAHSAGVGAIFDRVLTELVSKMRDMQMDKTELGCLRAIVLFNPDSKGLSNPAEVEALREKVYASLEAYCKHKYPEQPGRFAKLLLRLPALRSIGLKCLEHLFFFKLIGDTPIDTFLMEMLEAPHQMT

[5] = system: hPPARα, hPPARβ/∂, and hPPARγ; assay: PPRE reporter transactivation assays, statements on the hPPARs collectively; assay type: cell-based, human
[6] = target: T3, hCAR3 (Homo sapiens, UniProt Q14994, DEL233-236); assay: Transactivation luciferase reporter assay in COS-1 cells, CMV2-CAR3; assay type: cell-based; conditions: COS-1, 2B6-XREM-PBREM reporter, 24 h, Figure 2
T3 sequence (Q14994 with tags, fused parts or gaps isoform Q14994-8 DEL233-236): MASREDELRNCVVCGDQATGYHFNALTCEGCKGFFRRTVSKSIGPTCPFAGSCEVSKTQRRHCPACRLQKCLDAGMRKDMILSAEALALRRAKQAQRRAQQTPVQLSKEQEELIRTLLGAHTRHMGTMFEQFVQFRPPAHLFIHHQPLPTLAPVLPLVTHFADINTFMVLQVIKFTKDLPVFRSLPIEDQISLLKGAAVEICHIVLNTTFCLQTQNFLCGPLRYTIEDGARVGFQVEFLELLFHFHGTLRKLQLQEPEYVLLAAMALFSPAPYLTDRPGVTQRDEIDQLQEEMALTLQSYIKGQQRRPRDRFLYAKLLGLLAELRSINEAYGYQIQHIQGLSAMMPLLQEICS
T3 sequence (P19793 1-462 partner): T2 sequence (P19793 1-462 partner)

[7] = target: T4, hCAR2 (Homo sapiens, UniProt Q14994); assay: Transactivation luciferase reporter assay in COS-1 cells, CMV2-CAR2; assay type: cell-based; conditions: for activation of hCAR2 (screen): COS-1, 2B6-XREM-PBREM reporter, Figure 2; for activation of hCAR2 (dose–response): COS-1, 24 h
T4 sequence (Q14994 1-352): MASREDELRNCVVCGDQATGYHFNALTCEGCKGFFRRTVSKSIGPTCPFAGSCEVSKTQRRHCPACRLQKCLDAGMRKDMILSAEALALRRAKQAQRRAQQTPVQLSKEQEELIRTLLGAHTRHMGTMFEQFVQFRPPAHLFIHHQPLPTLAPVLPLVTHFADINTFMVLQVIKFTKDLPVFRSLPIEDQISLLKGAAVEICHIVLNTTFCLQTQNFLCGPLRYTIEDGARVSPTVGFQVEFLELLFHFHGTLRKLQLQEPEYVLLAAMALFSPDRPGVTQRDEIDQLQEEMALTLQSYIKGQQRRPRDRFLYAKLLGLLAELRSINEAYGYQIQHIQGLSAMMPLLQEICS
T4 sequence (P19793 1-462 partner): T2 sequence (P19793 1-462 partner)

[8] = system: male rodents; conditions: varying treatment modalities, ref [5]–[7]; cited from earlier work
[9] = system: female rodents; conditions: ref [8]; cited from earlier work
[10] = target: T5, hPPARα (Homo sapiens, UniProt Q07869); assay type: cell-based; conditions: COS-1, 24 h, Figure 4A
T5 sequence (Q07869 1-468): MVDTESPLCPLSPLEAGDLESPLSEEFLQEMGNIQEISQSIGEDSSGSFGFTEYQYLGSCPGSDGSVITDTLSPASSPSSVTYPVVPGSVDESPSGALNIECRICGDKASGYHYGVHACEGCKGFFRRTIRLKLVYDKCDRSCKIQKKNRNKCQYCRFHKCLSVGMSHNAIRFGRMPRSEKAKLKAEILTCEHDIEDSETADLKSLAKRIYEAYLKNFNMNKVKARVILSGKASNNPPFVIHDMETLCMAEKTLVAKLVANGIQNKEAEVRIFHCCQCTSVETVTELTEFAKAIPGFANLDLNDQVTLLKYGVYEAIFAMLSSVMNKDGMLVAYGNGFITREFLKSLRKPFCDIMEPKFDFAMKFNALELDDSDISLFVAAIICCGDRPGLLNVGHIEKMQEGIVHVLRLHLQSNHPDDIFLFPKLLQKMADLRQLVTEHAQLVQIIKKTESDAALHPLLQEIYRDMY

[11] = target: hCAR2 (Homo sapiens, UniProt Q14994); assay: Mammalian two-hybrid assay, CAR LBD with SRC1, COS-1 cells; assay type: cell-based; conditions: COS-1, 24 h, Figure 5
[12] = target: T6, hPPARβ/∂ (Homo sapiens, UniProt Q03181); assay type: cell-based; conditions: COS-1, 24 h, Figure 4B
T6 sequence (Q03181 1-441): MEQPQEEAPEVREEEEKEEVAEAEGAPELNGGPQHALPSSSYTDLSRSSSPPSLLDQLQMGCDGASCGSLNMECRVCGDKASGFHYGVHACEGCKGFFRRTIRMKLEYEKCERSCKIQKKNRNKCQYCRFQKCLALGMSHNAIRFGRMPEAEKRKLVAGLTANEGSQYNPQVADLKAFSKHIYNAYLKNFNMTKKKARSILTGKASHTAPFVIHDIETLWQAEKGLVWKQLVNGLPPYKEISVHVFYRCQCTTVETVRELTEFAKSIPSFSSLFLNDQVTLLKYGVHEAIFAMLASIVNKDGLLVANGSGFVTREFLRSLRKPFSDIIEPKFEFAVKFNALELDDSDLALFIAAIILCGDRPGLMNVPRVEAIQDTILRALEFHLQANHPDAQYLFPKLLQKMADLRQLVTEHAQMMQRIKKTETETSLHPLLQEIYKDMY

[13] = target: hPXR (Homo sapiens, UniProt O75469); assay: Mammalian two-hybrid assay, PXR LBD with SRC1, COS-1 cells; conditions: COS-1, 24 h, Figure 5
[14] = system: CYP2B6; assay: Primary human hepatocyte mRNA expression; conditions: donor HH3, 30 μM, 24 h
[15] = system: PPAR target genes (ACOX1, ANGPTL4, CPT2, PDK4); assay: Primary human hepatocyte mRNA expression; assay type: cell-based; conditions: primary human hepatocytes HH1–HH3, 24 h; for expression of PPAR target genes (overall): MEHP/MiNP 0.1–30 μM
[16] = system: 3T3L1 cells; conditions: cited from earlier work
[17] = system: hCAR variants and hPXR; conditions: transactivation assays, ref [47]; cited from earlier work

CCCCC(CC)COC(=O)c1ccccc1C(=O)OCC(CC)CCCC (centres unmarked) [DEHP, di(2-ethylhexyl) phthalate]
phenotype on control diet or high fat diet [1]: exhibited a lean phenotype | activation of hCAR1 (screen) [2]: only minimal activity; also recorded: little or no activation of hCAR1 | activation of rodent PPAR and CAR target genes [3]: activation of rodent PPAR and CAR target genes | EC50 [4]: 3.5 µM | activation of hPXR (screen) ([4]; 24 h): activated hCAR2 and hPXR | max fold activation (hPXR) ([4]; COS-1, 3A4-XREM reporter, 24 h, Figure 6/Table 4): 13.7 fold | activation of the PPRE reporter by hPPARs (screen) ([5]; COS-1, 24 h, Figure 3, effects only at highest test dose (100 μM)): neither DEHP nor DiNP activated the hPPARs | activation of the hPPARs (dose–response, higher doses) ([5]; hPPARα and hPPARγ, higher doses than screening, data not shown): neither of the diphthalates activated the hPPARs | activation of hCAR3 (screen) [6]: only minimal activity | EC50 [7]: 0.1 µM | activation of hCAR2 (screen) ([7]; 24 h): activated hCAR2 and hPXR | max fold activation (hCAR2) ([7]; COS-1, CYP2B6-PBREM-XREM reporter, 24 h, Figure 6/Table 4): 7.1 fold | testosterone levels, reproductive organ weights, sperm counts, sperm motility [8]: decrease testosterone levels, reproductive organ weights, sperm counts, and sperm motility | estradiol levels and estrus cycle [9]: Decreased estradiol levels and estrus cycle disruptions

O=C(O)c1ccccc1C(=O)OCc1ccccc1 [MBzP, monobenzyl phthalate]
activation of hPPARα (dose–response) [10]: activated hCAR2 and PPARα with similar potency | hCAR interaction with SRC1 / activation (mammalian two-hybrid) [11]: no activation | activation of hPXR (dose–response) ([4]; COS-1, 24 h, Figure 4B): only minor activation | activation of hPPARβ/∂ (dose–response) [12]: only minor activation | hPXR interaction with SRC1 / activation (mammalian two-hybrid) [13]: no activation | activation of hCAR2 (dose–response) ([7]; Figure 4A): activated hCAR2 and PPARα with similar potency | activation of hCAR2 (dose–response) ([7]; Figure 4B): only minor activation

CCCCC(CC)COC(=O)c1ccccc1C(=O)O (centres unmarked) [MEHP, mono-(2-ethylhexyl)phthalate]
CYP2B6 mRNA expression [14]: increased expression of CYP2B6 | activation of hCAR1 (screen) [2]: slight activation of hCAR1 and hCAR3 at the highest doses; also recorded: little or no activation of hCAR1 | expression of PPAR target genes (overall) [15]: Neither MEHP nor MiNP induced expression of any PPAR target genes; also recorded: no activation of PPAR target genes | activation of hPPARα (dose–response) [10]: very little activation of hPPARα | hCAR interaction with SRC1 / activation (mammalian two-hybrid) [11]: interacted with SRC1 in a dose-dependent manner | activation of hPXR (screen) ([4]; 24 h): moderate activation of hPXR | EC50 ([4]; read-out: EC50 (hPXR), COS-1, 3A4-XREM reporter, 24 h, Figure 6/Table 4): 27 µM | hPXR interaction with SRC1 / activation (mammalian two-hybrid) [13]: interacted with SRC1 in a dose-dependent manner | activation of hCAR3 (screen) [6]: slight activation of hCAR1 and hCAR3 at the highest doses | activation of hCAR2 (screen) ([7]; 24 h): significant activation of hCAR2 | rank order potency across receptors ([7]; transactivation dose–response, Figure 4B): hCAR2 > hPXR > hPPARγ ≥ PPARβ/∂ | expression of PPARγ target genes involved in adipocyte differentiation ([16]; 3T3L1 cells, ref [42]): induced expression of PPARγ target genes | cellular lipid and triglyceride content ([16]; 3T3L1 preadipocytes, ref [41],[42]): increased cellular lipid and triglyceride content

Cc1c(C)c2c(c(C)c1O)CCC(C)(COc1ccc(CC3SC(=O)NC3=O)cc1)O2 (centres unmarked) [TG, troglitazone]
ANGPTL4 mRNA expression ([15]; 50 μM WY14643, 30 μM TG): inducing only ANG and CPT in HH3 | CPT2 mRNA expression ([15]; 50 μM WY14643, 30 μM TG): inducing only ANG and CPT in HH3 | expression of PPAR target genes (overall) [15]: weak inducer of PPAR target genes | activation of hCAR variants and hPXR [17]: activates hCAR variants and hPXR
